Some results are limits rather than exact numbers.

Data set [1] concerns Plasmodium falciparum. The data set can be described thus: microbe, parasite or virus in culture. The note with it: Dd2, 72 h.
Description: Antimalarial activity against erythrocytic stage of chloroquine-resistant Plasmodium falciparum Dd2 assessed as inhibition of growth incubated for 72 hrs by SYBR green I based assay
Data set [2] deals with Plasmodium falciparum. In words: microbe, parasite or virus in culture. Particulars: 3D7, 72 h.
Description: Antimalarial activity against erythrocytic stage of Plasmodium falciparum 3D7 assessed as inhibition of growth incubated for 72 hrs by SYBR green I based assay
Data set [3] is described as follows: Selectivity index, ratio of IC50 for HEK293T cells to IC50 for erythrocytic stage of Plasmodium falciparum 3D7. It counts as toxicity, cell-based. Particulars: human, read-out: Ratio IC50.
A short description of data set [4]: Cytotoxicity against human HepG2 cells assessed as inhibition of cell growth incubated for 72 hrs by CCK8 assay. Type of data set: toxicity, cell-based. For orientation: Formazan colour is commonly taken as a measure of viable cells.
A short description of data set [5]: Selectivity index, ratio of IC50 for human HepG2 cells to IC50 for erythrocytic stage of Plasmodium falciparum 3D7. The note with it: read-out: Ratio IC50. Type of data set: toxicity, cell-based.
The nature of data set [6]: Cytotoxicity against HEK293T cells assessed as inhibition of cell growth incubated for 72 hrs by CCK8 assay. Type of data set: toxicity, cell-based, HEK-293T. Particulars: human.

Turning to `O=C(NO)c1cnc(N[C@H]2CC[C@@H](NCc3cccc4cccnc34)CC2)nc1`, the IC50 worked out at 0.0536 µM with Plasmodium falciparum [1] and 0.0656 µM in the data set on Plasmodium falciparum [2]. Also, the selectivity ratio in data set [3] and in data set [5] was greater than 152 in each case. Also, the IC50 at 72 h in data set [4] and in data set [6] was greater than 10 µM in each case.
For the compound `O=C(NO)c1cnc(N[C@H]2CC[C@@H](NCc3ccncc3)CC2)nc1`, the IC50 with Plasmodium falciparum [1] is 0.186 µM; with Plasmodium falciparum [2], 0.156 µM. The selectivity ratio in data set [3] and in data set [5] was greater than 64 throughout. In addition, the IC50 at 72 h in data set [4] and in data set [6] was greater than 10 µM throughout.
For `O=C(NO)c1cnc(N[C@H]2CC[C@@H](NCc3ccc4cc(F)ccc4n3)CC2)nc1`, the IC50 turned out to be 0.0158 µM in the data set with Plasmodium falciparum [1] and 0.0112 µM in the data set on Plasmodium falciparum [2]. Moreover, the selectivity ratio in data set [3] amounted to 213; in data set [5], 324. Besides, the IC50 at 72 h in data set [4] stood at 3.62 µM; in data set [6] it was 2.38 µM.
Consider `O=C(NO)c1cnc(N[C@H]2CC[C@@H](NCc3c4ccccc4cc4ccccc34)CC2)nc1`, for which the values for the IC50 in the data set with Plasmodium falciparum [1] and in the data set on Plasmodium falciparum [2] were 0.0075 µM and 0.009 µM, respectively. The selectivity ratio in data set [3] is 114; in data set [5], 95. In addition, the IC50 at 72 h came to 0.858 µM in data set [4] and 1.03 µM in data set [6].
Consider `Cn1cc(CN[C@H]2CC[C@@H](Nc3ncc(C(=O)NO)cn3)CC2)c2ccc(F)cc21`, for which the IC50 with Plasmodium falciparum [1] was 0.0145 µM; with Plasmodium falciparum [2], 0.012 µM. Also, the selectivity ratio was determined as 501 in data set [3] and 267 in data set [5]. Besides, the IC50 at 72 h in data set [4] was 3.19 µM; in data set [6], 6 µM.
`O=C(NO)c1cnc(N[C@H]2CC[C@@H](NCc3csc4ccccc34)CC2)nc1`: the IC50 in the data set on Plasmodium falciparum [1] came out at 0.0348 µM; in the data set with Plasmodium falciparum [2], 0.0253 µM. Moreover, the selectivity ratio was 77 in data set [3] and 54 in data set [5]. Also, the figures for the IC50 at 72 h in data set [4] and in data set [6] were 1.36 µM and 1.94 µM, respectively.
As to `Cn1cc(CN[C@H]2CC[C@@H](Nc3ncc(C(=O)NO)cn3)CC2)c2ccc(Br)cc21`, the figures for the IC50 with Plasmodium falciparum [1] and in the data set on Plasmodium falciparum [2] were 0.019 µM and 0.0222 µM, respectively. Further, the selectivity ratio turned out to be 217 in data set [3] and 100 in data set [5]. Besides, the IC50 at 72 h in data set [4] came to 2.22 µM; in data set [6] it was 4.83 µM.
In the case of `O=C(NO)c1cnc(N[C@H]2CC[C@@H](NCc3ccc4ncccc4c3)CC2)nc1`, the IC50 in the data set on Plasmodium falciparum [1] stood at 0.0472 µM; in the data set on Plasmodium falciparum [2], 0.0445 µM. The selectivity ratio in data set [3] stood at 157; in data set [5], 143. Besides, the values for the IC50 at 72 h in data set [4] and in data set [6] were 6.38 µM and 6.98 µM, respectively.
Turning to `Cn1nc(CN[C@H]2CC[C@@H](Nc3ncc(C(=O)NO)cn3)CC2)c2ccccc21`, the concentration for half-maximal inhibition (IC50) was 0.0312 µM in the data set on Plasmodium falciparum [1] and 0.0273 µM with Plasmodium falciparum [2]. For the same compound, the selectivity ratio in data set [3] was determined as 210; in data set [5], 212. Also, the half-maximal inhibitory concentration (IC50) at 72 h in data set [4] turned out to be 5.79 µM; in data set [6], 5.74 µM.
For `Cn1c(CN[C@H]2CC[C@@H](Nc3ncc(C(=O)NO)cn3)CC2)nc2ccccc21`, the values for the IC50 in the data set with Plasmodium falciparum [1] and in the data set with Plasmodium falciparum [2] were 0.0264 µM and 0.0196 µM, respectively. Also, the selectivity ratio in data set [3] and in data set [5] was greater than 510 in each case. The IC50 at 72 h in data set [4] and in data set [6] was greater than 10 µM in each case.
In the case of `O=C(NO)c1cnc(N[C@H]2CC[C@@H](NCC3CCCCC3)CC2)nc1`, the IC50 was 0.0534 µM in the data set with Plasmodium falciparum [1] and 0.0876 µM with Plasmodium falciparum [2]. Besides, the selectivity ratio in data set [3] was found to be 41; in data set [5], 67. Besides, the figures for the IC50 at 72 h in data set [4] and in data set [6] were 5.84 µM and 3.63 µM, respectively.
Turning to `O=C(NO)c1cnc(N[C@H]2CC[C@@H](NCc3ccc4ccc5cccc6ccc3c4c56)CC2)nc1`, the figures for the IC50 in the data set with Plasmodium falciparum [1] and in the data set with Plasmodium falciparum [2] were 0.0288 µM and 0.0303 µM, respectively. For the same compound, the selectivity ratio is 87 in data set [3] and 70 in data set [5]. In addition, the IC50 at 72 h in data set [4] was found to be 2.13 µM; in data set [6], 2.64 µM.
Take `O=C(NO)c1cnc(N[C@H]2CC[C@@H](NCc3ccnc4ccccc34)CC2)nc1`: the figures for the IC50 in the data set on Plasmodium falciparum [1] and with Plasmodium falciparum [2] were 0.054 µM and 0.057 µM, respectively. For the same compound, the selectivity ratio in data set [3] was greater than 176; in data set [5], 125. Moreover, the IC50 at 72 h in data set [4] is 7.12 µM; in data set [6], greater than 10 µM.
As to `Cn1cc(CN[C@H]2CC[C@@H](Nc3ncc(C(=O)NO)cn3)CC2)c2ccccc21`, the IC50 with Plasmodium falciparum [1] was 0.0119 µM; with Plasmodium falciparum [2], 0.0108 µM. The results for the selectivity ratio in data set [3] and in data set [5] were 399 and 163, respectively. Also, the IC50 at 72 h in data set [4] was found to be 1.77 µM; in data set [6] it was 4.31 µM.
Consider `O=C(NO)c1cnc(N[C@H]2CC[C@@H](NCc3cc4ccccc4s3)CC2)nc1`, for which the IC50 turned out to be 0.0264 µM with Plasmodium falciparum [1] and 0.0218 µM in the data set with Plasmodium falciparum [2]. The selectivity ratio in data set [3] is 109; in data set [5] it was 66. Moreover, the results for the IC50 at 72 h in data set [4] and in data set [6] were 1.44 µM and 2.38 µM, respectively.
With `O=C(NO)c1cnc(N[C@H]2CC[C@@H](NCC3CCCC3)CC2)nc1`, the IC50 in the data set on Plasmodium falciparum [1] came out at 0.0701 µM; with Plasmodium falciparum [2] it was 0.1 µM. Also, the results for the selectivity ratio in data set [3] and in data set [5] were 59 and 55, respectively. Moreover, the IC50 at 72 h amounted to 5.49 µM in data set [4] and 5.88 µM in data set [6].
`O=C(NO)c1cnc(N[C@H]2CC[C@@H](NCc3cccnc3)CC2)nc1`: the IC50 was found to be 0.0565 µM with Plasmodium falciparum [1] and 0.114 µM in the data set on Plasmodium falciparum [2]. The selectivity ratio in data set [3] came out at 37; in data set [5], 40. The IC50 at 72 h in data set [4] is 4.58 µM; in data set [6], 4.24 µM.
For the compound `O=C(NO)c1cnc(N[C@H]2CC[C@@H](NCc3ccoc3)CC2)nc1`, the IC50 in the data set with Plasmodium falciparum [1] was found to be 0.106 µM; with Plasmodium falciparum [2], 0.109 µM. In addition, the selectivity ratio in data set [3] and in data set [5] was greater than 91 in each case. Further, the IC50 at 72 h in data set [4] and in data set [6] was greater than 10 µM throughout.
Take `O=C(NO)c1cnc(N[C@H]2CC[C@@H](NCc3ccccc3)CC2)nc1`: in the data set with Plasmodium falciparum [1], half-maximal inhibition (IC50) was put at 0.0546 µM. For the same compound, the selectivity ratio in data set [3] turned out to be 44. For the same compound, in data set [6], the IC50 at 72 h is 4.62 µM.
Regarding `Cn1cc(CN[C@H]2CC[C@@H](Nc3ncc(C(=O)NO)cn3)CC2)c2ccncc21`, the results for the IC50 in the data set on Plasmodium falciparum [1] and in the data set with Plasmodium falciparum [2] were 0.0494 µM and 0.0521 µM, respectively. For the same compound, the selectivity ratio in data set [3] and in data set [5] was greater than 192 in each case. For the same compound, the IC50 at 72 h in data set [4] and in data set [6] was greater than 10 µM in each case.
As to `O=C(NO)c1cnc(N[C@H]2CC[C@@H](NCc3cccc4ccccc34)CC2)nc1`, the IC50 in the data set on Plasmodium falciparum [1] was 0.0395 µM; in the data set with Plasmodium falciparum [2] it was 0.0343 µM. Further, the selectivity ratio came out at 47 in data set [3] and 19 in data set [5]. For the same compound, the figures for the IC50 at 72 h in data set [4] and in data set [6] were 0.642 µM and 1.53 µM, respectively.
For the compound `Cn1cc(CN[C@H]2CC[C@@H](Nc3ncc(C(=O)NO)cn3)CC2)c2cccnc21`, the half-maximal inhibitory concentration (IC50) was 0.0539 µM in the data set with Plasmodium falciparum [1] and 0.0479 µM in the data set with Plasmodium falciparum [2]. For the same compound, the selectivity ratio in data set [3] and in data set [5] was greater than 209 each time. Moreover, the IC50 at 72 h in data set [4] and in data set [6] was greater than 10 µM throughout.
`Cn1cc(CN[C@H]2CC[C@@H](Nc3ncc(C(=O)NO)cn3)CC2)c2cnccc21`: the IC50 came to 0.0513 µM in the data set with Plasmodium falciparum [1] and 0.0638 µM in the data set on Plasmodium falciparum [2]. The selectivity ratio in data set [3] and in data set [5] was greater than 157 in each case. The IC50 at 72 h in data set [4] and in data set [6] was greater than 10 µM throughout.

In general, IC50 refers to the concentration needed to halve the response being measured.

These data come from ChEMBL document CHEMBL6096636 (Bioorg Med Chem, 2024).
